Measurements from patent US7504390B2, “Benzoxazepine derivatives and their use as AMPA receptor stimulators” (N.V. Organon, priority 2001, dated 2009).

System: not listed separately
Assay: Differential Reinforcement of Low Rates of Responding, 72 Seconds (DRL72)
Type: in vivo
Conditions: rats; intraperitoneal route 30 minutes before the test session
Method: Rats are pretrained in a standard operant chamber to perform a DRL72 procedure according to Andrews et al (Andrews J S, Jansen J H M, Linders S, Princen A, Drinkenburg W H I M, Coenders C J H and Vossen J H M (1994). Effects of imipramine and mirtazapine on operant performance in rats. Drug Development Research, 32:58-66). The test session lasts for 60 minutes with no limit to the number of trials. Each trial begins with the stimulus light on above the active lever. A response on the lever only results in delivery of a pellet if 72 seconds has elapsed. A response on the lever before 72 seconds has elapsed resets the timer and is not rewarded. The number of pellets earned and the number of lever presses is recorded and used to calculate an efficiency score. Test compounds are administered via the intraperitoneal route 30 minutes before the start of the test session. Antidepressants increase the number of pellets earned and decrease the number of lever presses (Andrews et al, 1994).

Compound	antidepressant like profile in DRL72
O=C1c2cccc(F)c2OC[C@@H]2CCCN12 [Example 3B, (S)-9-Fluoro-2,3,11,11a-tetrahydro-1H,5H-pyrrolo[2,1-c][1,4]benzoxazepine-5-one]	antidepressant like profile

System: not listed separately
Assay: Inhibition of amphetamine-induced hyperlocomotion
Type: in vivo
Conditions: mice; sc, 30 minutes before 1.5 mg/kg d-amphetamine sulphate sc; measured for 60 minutes
Method: Mice were injected sc with drug or vehicle control. 30 Minutes later mice were injected sc with 1.5 mg/kg d-amphetamine sulphate or saline and immediately placed in infra red locomotor boxes where locomotor activity (long duration beam breaks of two adjacent beams) and stereotypic behaviour (repetitive short-duration beam breaks) were measured for a period of 60 minutes. The experiment was analysed using a 3-Way ANOVA with experimental session, infra red locomotor boxes and treatment as factors, and in the case of treatment, significant effects were followed up using a Tukey (HSD) test.

Compound	antipsychotic like activity (inhibited amphetamine induced hyperlocomotion)
O=C1c2cccc(F)c2OC[C@H]2CCCN12 [Example 3A, (R)-9-Fluoro-2,3,11,11a-tetrahydro-1H,5H-pyrrolo[2,1c][1,4]benzoxazepine-5-one]	antipsychotic like activity
O=C1c2ccccc2OC[C@@H]2CCCN12 [(S)-2,3,11,11a-tetrahydro-1H,5H-pyrrolo[2,1-c][1,4]benzoxazepine-5-one, reference compound]	antipsychotic like activity

System: AMPA receptor
Assay: Patch clamp whole cell electrophysiology: glutamate-evoked steady state current in cultured hippocampal neurons
Type: cell-based, Sprague-Dawley rats
Conditions: 10 μM compound in extracellular solution; glutamate 0.5 mM; holding potential −60 mV; cultured rat hippocampal neurons
From the text: The benzoxazepines of the invention are AMPA receptor stimulators, as can be determined by an increase in steady state current induced by application of glutamate in a conventional whole cell patch clamp method when a benzoxazepine of the invention is present (see Example 30 and Table I). The compounds may be used in the treatment of neurological and psychiatric diseases where an enhancement of synaptic responses mediated by AMPA receptors is required, such as neuro-degenerative disorders, cognitive or memory dysfunction, memory and learning disorders such as can result from ageing, attention disorder, trauma, stroke, epilepsy, Alzheimer's disease, depression, schizophrenia, psychotic disorders, anxiety, sexual dysfunctions, autism, or a disorder or disease resulting from neurotic agents or substance abuse, and alcohol intoxication.
Hippocampal neurons were prepared from embryonic or 1-3 day old Sprague-Dawley rats which were decapitated and the heads immediately placed in ice cold HBS (HEPES Buffered Solution: 130 mM NaCl, 5.4 mM KCl, 10 mM HEPES, 1.0 mM MgCl2, 1.8 CaCl2, 25 mM glucose, adjusted to pH 7.4). The whole brain was excised and placed on pre-sterilised filter paper, soaked in HBS and the cerebellum was removed. The brain was chopped and an enzyme solution (0.5 mg/ml protease X and 0.5 mg/ml protease in HBS) was added and subsequently left for 40 minutes at room temperature to digest before trituration. Cells were resuspended and then counted to give a final concentration of 1.5×10^8 per ml. Cells were aliquoted onto poly-D-lysine- and Matrigel®-treated coverslips and left to incubate at 37° C. for 1-2 hours. When incubation was complete, 1 ml of growth medium was added to each well containing a coverslip and the cells were returned to the incubator. After 3-5 days the mitotic inhibitor cytosine arabinoside (5 μM) was added and the cells returned to the incubator until required.
The whole cell configuration of the patch clamp technique (Hamill et al., Pflũgers Arch. 1981, 39, 85-100) was used to measure glutamate-evoked currents from postnatal hippocampal neurons maintained in culture for 4-7 days. A glass coverslip containing the culture was transferred to the recording chamber (Warner Instrument Corp., Hamden, Conn.) mounted on the stage of an inverted microscope (Nikon, Kingston, UK). The recording chamber contained 1-2 ml extracellular solution (145 mM NaCl, 5.4 mM KCl, 10 mM HEPES, 0.8 mM MgCl2, 1.8 CaCl2, 10 mM glucose and 30 mM sucrose, adjusted to pH 7.4 with 1M NaOH) and was constantly perfused at a rate of 1 ml/min. Recordings were performed at room temperature (20-22° C.) using an Axopatch 200B amplifier (Axon Instruments Ltd., Foster City, Calif.). Data acquisition and analysis was performed using Signal software (Cambridge electronic Design Ltd., Cambridge, UK). Pipettes were manufactured from GC120F-10 glass (Harvard Apparatus, Edenbridge UK) using a model P-87 electrode puller (Sutter Instruments Co., Novarto, Calif.). The patch electrodes had typical resistances of between 3-5 MΩ when filled with intracellular solution (140 mM potassium gluconate, 20 mM HEPES, 1.1 mM EGTA, 5 mM phosphocreatine, 3 mM ATP, 0.3 mM GTP, 0.1 mM CaCl2, 5 mM MgCl2, adjusted to pH 7.4 with 1M KOH).
Cells were voltage clamped at a holding potential of −60 mV and glutamate (0.5 mM) was applied using a 12 channel semi-rapid drug application device (DAD-12. Digitimer Ltd., Welwyn Garden City, UK). The agonist glutamate was applied for 1 s every 30 s. […] Between applications saline flowed to clear any dead volume in the system. For each application steady-state currents were plotted from the difference in baseline and steady state current and averaged over 300 ms.
Two solutions of the compound in extracellular solution were made up, one with glutamate and one without. The protocol was: 10 second application of compound, 1 second application of compound+glutamate and then 10 second wash with saline, then a 10 second delay. […]

Compound	% Increase In steady state current at 10 μM [%]
O=C1c2ccccc2OC[C@@H]2CC(F)(F)CN12 [Example 28, (2S)-2,2-Difluoro-2,3,11,11a-tetrahydro-1H,5H-pyrrolo[2,1-c][1,4]benzoxazepine-5-one]	9
O=C1c2ccccc2OC[C@@H]2C[C@@H](O)CN12 [Example 25, (2R,11aS)-2-Hydroxy-2,3,11,11a-tetrahydro-1H,5H-pyrrolo[2,1-c][1,4]benzoxazepine-5-one]	31
O=C1c2cc(F)ccc2OC[C@H]2CCCN12 [Example 1, (R)-7-Fluoro-2,3,11,11a-tetrahydro-1H,5H-pyrrolo[2,1-c][1,4]benzoxazepine-5-one]	17
O=C1c2ccccc2OCC2COCCN12 (stereo not drawn) [Example 22, 6,6a-Dihydro-12H-Morpholino[3,4-c][1,4]benzoxazepin-12-one]	31
COc1ccc2c(c1)OC[C@@H]1CCCN1C2=O [Example 11, (S)-8-Methoxy-2,3,11,11a-tetrahydro-1H,5H-pyrrolo[2,1-c][1,4]benzoxazepine-5-one]	21
O=C1c2ccccc2OC[C@@H]2C[C@H](F)CN12 [Example 26, (2S,11aS)2-Fluoro-23,11,11a-tetrahydro-1H,5H-pyrrolo[2,1-c][1,4]benzoxazepine-5-one]	24
CC1(C)COC2COc3ccccc3C(=O)N21 (stereo not drawn) [Example 24, 2,11,11a-Trihydro-3,3dimethyloxazolidinyl[2,1-c][1,4]-benzoxazepin-5-one]	18
CC(=O)Nc1ccc2c(c1)C(=O)N1CCC[C@H]1CO2 [Example 14, (S)-N-(2,3,11,11a-tetrahydro-5-oxo-1H,5H-pyrrolo[2,1-a][1,4]benzoxazepin-7-yl)-acetamide]	49
CC[C@@H]1Oc2ccccc2C(=O)N2CCC[C@@H]12 [Example 20B, (11S. 11aS)-11-Ethyl-2,3,11,11a-tetrahydro-1H,5H-pyrrolo[2,1-c][1,4]benzoxazepine-5-one]	28
O=C1c2ccccc2OC[C@H]2CCCN12 [(R)-2,3,11,11a-tetrahydro-1H,5H-pyrrolo[2,1-c][1,4]benzoxazepine-5-one, reference compound]	24
NC(=O)c1ccc2c(c1)C(=O)N1CCC[C@H]1CO2 [Example 17A, (S)-7-(aminocarbonyl)-2,3,11,11a-tetrahydro-1H,5H-pyrrolo[2,1-c][1,4]benzoxazeline-5-one]	8
O=C1c2cccc(F)c2OC[C@H]2CCCN12 [Example 3A, (R)-9-Fluoro-2,3,11,11a-tetrahydro-1H,5H-pyrrolo[2,1c][1,4]benzoxazepine-5-one]	23
O=C1c2ccccc2OC[C@@H]2CCN12 [Example 23, (S)-1,2,10,10a-Tetrahydroazetidinyl[2,1-c][1,4]benzoxazepin-4-one]	16
O=C(c1ccc2c(c1)C(=O)N1CCC[C@H]1CO2)N1CCOCC1 [Example 16A, (S)-7-(morpholinocarbonyl)-2,3,11,11a-tetrahydro-1H,5H-pyrrolo[2,1-c][1,4]-benzoxazepine-5-one]	24
O=C1c2cccc(F)c2OC[C@@H]2CCCN12 [Example 3B, (S)-9-Fluoro-2,3,11,11a-tetrahydro-1H,5H-pyrrolo[2,1-c][1,4]benzoxazepine-5-one]	20
O=C1c2cc(F)ccc2OC[C@@H]2CCCN12 [Example 2, (S)-7-Fluoro-2,3,11,11a-tetrahydro-1H,5H-pyrrolo[2,1-c][1,4]benzoxazepine-5-one]	19
CC[C@H]1Oc2ccccc2C(=O)N2CCC[C@@H]12 [Example 20A, (11R, 11aS)-11-Ethyl-2,3,11,11a-tetrahydro-1H,5H-pyrrolo[2,1-c][1,4]benzoxazepine-5-one]	31
O=C1c2ccccc2OC[C@@H]2CCCN12 [(S)-2,3,11,11a-tetrahydro-1H,5H-pyrrolo[2,1-c][1,4]benzoxazepine-5-one, reference compound]	53
O=S1(=O)c2ccccc2OC[C@@H]2CCCN21 [Example 10, (S)-2,3,11,11,a-tetrahydro-1H,5H-pyrrolo[2,1-c][5,1,4]benzthiaoxazepine-5-dioxide]	7

System: not given
Assay: not given
Conditions: not given

Compound	melting point [°C]
O=C1c2ccc(F)cc2OC[C@@H]2CCCN12 [Example 5, (S)-8-fluoro-2,3,11,11a-tetrahydro-1H,5H-pyrrolo[2,1-c][1,4]benzoxazepine-5-one]	75 to 76
O=C1c2cccc(Cl)c2OC[C@@H]2CCCN12 [Example 8, (S)-9-Chloro-2,3,11,11a-tetrahydro-1H,5H-pyrrolo[2,1-c][1,4]benzoxazepine-5-one]	89 to 90
O=C1c2ccc(Cl)cc2OC[C@H]2CCCN12 [Example 4, (R)-8-chloro-2,3,11,11a-tetrahydro-1H,5H-pyrrolo[2,1-c][1,4]benzoxazepine-5-one]	92 to 94
N#Cc1ccc2c(c1)C(=O)N1CCC[C@@H]1CO2 [Example 19, (R)-7-Cyano-2,3,11,11a-tetrahydro-1H5H-pyrrolo[2,1-c][1,4]benzoxazepine-5-one]	164 to 165
O=C(c1ccc2c(c1)C(=O)N1CCC[C@H]1CO2)N1CCCCC1 [Example 15, (S)-7-(Piperidinocarbonyl)-2,3,11,11a-tetrahydro-1H,5H-pyrrolo[2,1-c][1,4]benzoxazepine-5]	140 to 140.5
